Data taken from patent publication US20120029187A1, “HALOALKYLSULFONANILIDE DERIVATIVE” (Nissan Chemical Industries, Ltd., priority 2009, published 2012).

Assays:
Type in all cases: in vivo
barnyardgrass [1] = test: Test Example 1: herbicidal effects in preemergence treatment under submerged conditions; details: dose 2.52 g/a
Procedure, shortened: (§1)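 Flooded-paddy preemergence assay; EC diluted with water, surface-applied at weed seeding; doses g/a; rice transplanted at 2.5 leaves; 0–5 mortality score after 3 weeks.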

bulrush [2] = test: as above; details: dose 2.52 g/a
Procedure, shortened: as §1

ducksalad [3] = test: as above; details: dose 2.52 g/a
Procedure, shortened: as §1

transplanted rice = test: Test Example 1: preemergence treatment under submerged conditions, effect on crop; details: dose 2.52 g/a
Procedure, shortened: as §1

barnyardgrass [4] = test: Test Example 2: herbicidal effects during the vegetation period under submerged conditions; details: treatment during the vegetation period under submerged conditions; dose 2.52 g/a
Procedure, shortened: (§2)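 Barnyardgrass, bulrush and ducksalad were co-sown in alluvial soil flooded to 4 cm and grown in a greenhouse at 25 to 30° C. At the 1- or 2-leaf stage, water-diluted emulsifiable concentrates went onto the water surface at set doses (g/a). Herbicidal effect was scored three weeks later on a graded scale.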

bulrush [5] = test: as above; details: treatment during the vegetation period under submerged conditions; dose 2.52 g/a
Procedure, shortened: as §2

ducksalad [6] = test: as above; details: treatment during the vegetation period under submerged conditions; dose 2.52 g/a
Procedure, shortened: as §2

Italian ryegrass [7] = test: Test Example 3: herbicidal effects in soil treatment; details: dose 3.2 g/a
Procedure, shortened: (§3)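 Seeds were sown in sterilized diluvial soil and covered with about 1.5 cm of soil. Compounds, formulated as emulsifiable concentrates and diluted with water, were sprayed evenly over the soil surface at set doses in g/a. Herbicidal effect was scored on a rating scale three weeks later.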

barnyardgrass [8] = test: as above; details: dose 3.2 g/a
Procedure, shortened: as §3

common chickweed [9] = test: as above; details: dose 3.2 g/a
Procedure, shortened: as §3

common lambsquater [10] = test: as above; details: dose 3.2 g/a
Procedure, shortened: as §3

common ragweed [11] = test: as above; details: dose 3.2 g/a
Procedure, shortened: as §3

giant foxtail [12] = test: as above; details: dose 3.2 g/a
Procedure, shortened: as §3

large crabgrass [13] = test: as above; details: dose 3.2 g/a
Procedure, shortened: as §3

posumbu knotweed [14] = test: as above; details: dose 3.2 g/a
Procedure, shortened: as §3

redroot pigweed [15] = test: as above; details: dose 3.2 g/a
Procedure, shortened: as §3

velvetleaf [16] = test: as above; details: dose 3.2 g/a
Procedure, shortened: as §3

water foxtail [17] = test: as above; details: dose 3.2 g/a
Procedure, shortened: as §3

wild oat [18] = test: as above; details: dose 3.2 g/a
Procedure, shortened: as §3

Italian ryegrass [19] = test: Test Example 4: herbicidal effect in foliage treatment; details: dose 3.2 g/a, three weeks after application
Procedure, shortened: (§4)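 Sowing in sterilized diluvial soil, ~1.5 cm cover; growth 14 d, 25–30° C greenhouse; foliar spray of water-diluted EC at predetermined g/a; scoring 3 wk later on graded scale.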

barnyardgrass [20] = test: as above; details: dose 3.2 g/a, three weeks after application
Procedure, shortened: as §4

beadstraw = test: as above; details: dose 3.2 g/a, three weeks after application
Procedure, shortened: as §4

common chickweed [21] = test: as above; details: dose 3.2 g/a, three weeks after application
Procedure, shortened: as §4

common lambsquater [22] = test: as above; details: dose 3.2 g/a, three weeks after application
Procedure, shortened: as §4

common ragweed [23] = test: as above; details: dose 3.2 g/a, three weeks after application
Procedure, shortened: as §4

giant foxtail [24] = test: as above; details: dose 3.2 g/a, three weeks after application
Procedure, shortened: as §4

large crabgrass [25] = test: as above; details: dose 3.2 g/a, three weeks after application
Procedure, shortened: as §4

posumbu knotweed [26] = test: as above; details: dose 3.2 g/a, three weeks after application
Procedure, shortened: as §4

redroot pigweed [27] = test: as above; details: dose 3.2 g/a, three weeks after application
Procedure, shortened: as §4

velvetleaf [28] = test: as above; details: dose 3.2 g/a, three weeks after application
Procedure, shortened: as §4

water foxtail [29] = test: as above; details: dose 3.2 g/a, three weeks after application
Procedure, shortened: as §4

wild oat [30] = test: as above; details: dose 3.2 g/a, three weeks after application
Procedure, shortened: as §4

SMILES	A: barnyardgrass, herbicidal effect (evaluation scale 0-5) (barnyardgrass [1])	B: bulrush, herbicidal effect (evaluation scale 0-5) (bulrush [2])	C: ducksalad, herbicidal effect (evaluation scale 0-5) (ducksalad [3])	a: transplanted rice, effect on crop (evaluation scale 0-5) (transplanted rice)	A: barnyardgrass, herbicidal effect (evaluation scale 0-5) (barnyardgrass [4])	B: bulrush, herbicidal effect (evaluation scale 0-5) (bulrush [5])	C: ducksalad, herbicidal effect (evaluation scale 0-5) (ducksalad [6])	H: Italian ryegrass, herbicidal effect (evaluation scale 0-5) (Italian ryegrass [7])	A: barnyardgrass, herbicidal effect (evaluation scale 0-5) (barnyardgrass [8])	N: common chickweed, herbicidal effect (evaluation scale 0-5) (common chickweed [9])	L: common lambsquater, herbicidal effect (evaluation scale 0-5) (common lambsquater [10])	J: common ragweed, herbicidal effect (evaluation scale 0-5) (common ragweed [11])	E: giant foxtail, herbicidal effect (evaluation scale 0-5) (giant foxtail [12])	D: large crabgrass, herbicidal effect (evaluation scale 0-5) (large crabgrass [13])	M: posumbu knotweed, herbicidal effect (evaluation scale 0-5) (posumbu knotweed [14])	K: redroot pigweed, herbicidal effect (evaluation scale 0-5) (redroot pigweed [15])	I: velvetleaf, herbicidal effect (evaluation scale 0-5) (velvetleaf [16])	G: water foxtail, herbicidal effect (evaluation scale 0-5) (water foxtail [17])	F: wild oat, herbicidal effect (evaluation scale 0-5) (wild oat [18])	H: Italian ryegrass, herbicidal effect (Italian ryegrass [19])	further results
CC1COCC(=O)N1Cc1ccccc1NS(=O)(=O)C(F)(F)F (stereo not shown) [Compound I-13]	5 (mortality of 90% or above (nearly complete death))	5 (mortality of 90% or above (nearly complete death))	5 (mortality of 90% or above (nearly complete death))	1 (mortality of at least 5% and less than 20%)	5 (mortality of 90% or above (nearly complete death))	5 (mortality of 90% or above (nearly complete death))	5 (mortality of 90% or above (nearly complete death))	5 (mortality of 90% or above (nearly complete death))	5 (mortality of 90% or above (nearly complete death))	5 (mortality of 90% or above (nearly complete death))	5 (mortality of 90% or above (nearly complete death))	5 (mortality of 90% or above (nearly complete death))	5 (mortality of 90% or above (nearly complete death))	5 (mortality of 90% or above (nearly complete death))	5 (mortality of 90% or above (nearly complete death))	5 (mortality of 90% or above (nearly complete death))	5 (mortality of 90% or above (nearly complete death))	5 (mortality of 90% or above (nearly complete death))	3 (mortality of at least 40% and less than 70%)	5 (mortality of 90% or above (nearly complete death))	A: barnyardgrass, herbicidal effect (barnyardgrass [20]): 5 (mortality of 90% or above (nearly complete death)); O: beadstraw, herbicidal effect (beadstraw): 4 (mortality of at least 70% and less than 90%); N: common chickweed, herbicidal effect (common chickweed [21]): 4 (mortality of at least 70% and less than 90%); L: common lambsquater, herbicidal effect (common lambsquater [22]): 3 (mortality of at least 40% and less than 70%); J: common ragweed, herbicidal effect (common ragweed [23]): 4 (mortality of at least 70% and less than 90%); E: giant foxtail, herbicidal effect (giant foxtail [24]): 4 (mortality of at least 70% and less than 90%); D: large crabgrass, herbicidal effect (large crabgrass [25]): 5 (mortality of 90% or above (nearly complete death)); M: posumbu knotweed, herbicidal effect (posumbu knotweed [26]): 3 (mortality of at least 40% and less than 70%); K: redroot pigweed, herbicidal effect (redroot pigweed [27]): 3 (mortality of at least 40% and less than 70%); I: velvetleaf, herbicidal effect (velvetleaf [28]): 5 (mortality of 90% or above (nearly complete death)); G: water foxtail, herbicidal effect (water foxtail [29]): 5 (mortality of 90% or above (nearly complete death)); F: wild oat, herbicidal effect (wild oat [30]): 0 (mortality of less than 5% (almost ineffective))
CCOC(=O)N(c1ccccc1CN1C(=O)COCC1C)S(=O)(=O)C(F)(F)F (stereo not shown) [Compound I-14]	5 (mortality of 90% or above (nearly complete death))	5 (mortality of 90% or above (nearly complete death))	5 (mortality of 90% or above (nearly complete death))	0 (mortality of less than 5% (almost ineffective))	5 (mortality of 90% or above (nearly complete death))	5 (mortality of 90% or above (nearly complete death))	5 (mortality of 90% or above (nearly complete death))	5 (mortality of 90% or above (nearly complete death))	5 (mortality of 90% or above (nearly complete death))	5 (mortality of 90% or above (nearly complete death))	5 (mortality of 90% or above (nearly complete death))	5 (mortality of 90% or above (nearly complete death))	5 (mortality of 90% or above (nearly complete death))	5 (mortality of 90% or above (nearly complete death))	5 (mortality of 90% or above (nearly complete death))	5 (mortality of 90% or above (nearly complete death))	5 (mortality of 90% or above (nearly complete death))	5 (mortality of 90% or above (nearly complete death))	4 (mortality of at least 70% and less than 90%)	5 (mortality of 90% or above (nearly complete death))	A: barnyardgrass, herbicidal effect (barnyardgrass [20]): 5 (mortality of 90% or above (nearly complete death)); O: beadstraw, herbicidal effect (beadstraw): 4 (mortality of at least 70% and less than 90%); N: common chickweed, herbicidal effect (common chickweed [21]): 4 (mortality of at least 70% and less than 90%); L: common lambsquater, herbicidal effect (common lambsquater [22]): 5 (mortality of 90% or above (nearly complete death)); J: common ragweed, herbicidal effect (common ragweed [23]): 4 (mortality of at least 70% and less than 90%); E: giant foxtail, herbicidal effect (giant foxtail [24]): 4 (mortality of at least 70% and less than 90%); D: large crabgrass, herbicidal effect (large crabgrass [25]): 4 (mortality of at least 70% and less than 90%); M: posumbu knotweed, herbicidal effect (posumbu knotweed [26]): 4 (mortality of at least 70% and less than 90%); K: redroot pigweed, herbicidal effect (redroot pigweed [27]): 4 (mortality of at least 70% and less than 90%); I: velvetleaf, herbicidal effect (velvetleaf [28]): 5 (mortality of 90% or above (nearly complete death)); G: water foxtail, herbicidal effect (water foxtail [29]): 5 (mortality of 90% or above (nearly complete death)); F: wild oat, herbicidal effect (wild oat [30]): 0 (mortality of less than 5% (almost ineffective))
